Assay results from patent US20240262791A1, “B[…] […] AMINO ACIDS” (priority 2021, published 2024).

Legend:
[1] = target: T1, WT Spike RBD (Severe acute respiratory syndrome coronavirus 2, UniProt P0DTC2); type: biochemical, SARS-CoV-2
T1 construct: SARS-CoV-2 spike protein, RBD, 6His tag (S protein) was purchased from ACRObiosystems (#SRD-C52H3); purchased ACRObiosystems #SRD-C52H3

[2] = test system: Afb7X; experiment: Afb7X and MBP-Z(24F-FSY) cross-linking; type: biochemical; conditions: MBP-Z(24F-FSY) with Afb7X, PBS pH 7.4, 37° C., 12 h
Description: We also introduced F-FSY into the maltose binding protein (MBP) fused Z protein at position 24 (MBP-Z(24F-FSY)). The purified MBP-Z(24F-FSY) was analyzed by electrospray ionization time-of-flight mass spectrometry (ESI-TOF MS). A peak observed at 50829 Da corresponds to intact MBP-Z containing F-FSY at site 24 (data not shown). We then tested the reactivities of F-FSY towards amino acid residue using the binding complex of MBP-Z and the Zspa affibody (Afb). Upon Afb-Z binding, F-FSY would be place in close proximity with the residue at position 7 of Afb (Afb7X) and would form a covalent bond with the targeting residue, causing protein-protein cross-linking.
0.5 mg/ml Afb7X and 1 mg/ml MBP-Z(24F-FSY) were incubated in PBS (pH 7.4) at 37° C. for 12 h, after which 1 j.tL reaction solution was extracted and mixed with 10 j.tL Laemmli loading buffer. The mixture was heated to 95° C. for 10 min and then loaded for SDS-PAGE, after which the gel was stained with Coomassie blue and imaged with ChemiDoc™ MP imaging system (Bio-rad).

[3] = test system: nucleoside monophosphates (NMPs: AMP, UMP, CMP, or GMP); experiment: In vitro incubations of NMPs and SFY; conditions: 50 mM SFY, 50 mM NMP, 37° C.
Description: In addition, to check if SFY could cross-link all four nucleotides, we incubated 50 mM SFY with 50 mM different nucleoside monophosphates (NMPs: AMP, UMP, CMP, or GMP) at 37° C. for 16 hours.
50 mM SFY (HCl salt) and 50 mM NMP was incubated in DI H2O. 50 mM NaOH was added to neutralize the HCl salt. The mixture was incubated at 37° C. for 48 h. Then the reaction mixture was diluted for 50 times in H2O/acetonitrile (50/50, v/v, with 0.1% trifluoracetic acid) and subjected to mass spectrum analysis using positive mode. Mass spectrum analysis was performed on SCIEX MDS, 3200 Q TRAP system.

[4] = test system: GST; experiment: Cross-linking of GST-103SFY-107X in live mammalian cells; type: cell-based; conditions: SFY at site 103 of GST, residue 107 varied, HEK293T cells
Description: […] of pcDNA-GST-103TAG-107X (X=A, H, Y or K)^3 and […] of pNEU-MmSFYRS-4xU6M15 were co-transfected into target cells using 5 μL of lipofectamine 2000 following the manufacturer's instructions. Six hours post transfection, the media were replaced with complete DMEM media with or without 1 mM SFY. The cells were incubated at 37° C. for additional 48 h, collected, and applied for immunoblot analysis.

[5] = SFY crosslinking of protein residues and RNA in cells; type: cell-based; conditions: E. coli and HEK293T cells
Description: FIG. 4B: Fluorescence confocal images HEK293 cells expressing EGFP(40TAG) gene and the Mm-tRNA^Pyl/MmSFYRS with and without 1 mM SFY. FIG. 4C: Flow cytometric analysis of SFY incorporation into EGFP(40TAG) in HEK293 cells using Ma-tRNA^Pyl/MaSFYRS. […] FIGS. 4E-4F: Analysis of crosslinking of Afb(24SFY) with MBP-Z(7X) in E. coli cells. Western blot of E. coli cell lysate (FIG. 4E); SDS-PAGE of proteins His-tag purified from E. coli (FIG. 4F). Maltose binding protein (MBP) was fused to the N-terminus of Z protein to better separate Z from Afb in size. […] FIG. 4H: Western blot analysis of lysate of HEK293T cells expressing GST(103SFY-107X). X is the target residue indicated. FIG. 4I: Western blot analysis E. coli cells expressing Hfq with SFY incorporated at site 25 or 49. Cell lysate samples were treated with or without RNase before loading, and an anti-His antibody was used to detect the 6×His tag appended at the C-terminus of expressed Hfq.

[6] = test system: HEK293T cells; type: cell-based; conditions: 0 to 1 mM SFY, 24-48 h
Description: 2×10^4 cells/well of HEK293T cells were seeded in a 96-well plate. On the next day, the media were replaced with fresh DMEM media supplemented with 0, 0.0625, 0.125, 0.25, 0.5, or 1 mM of SFY. The SFY-treated and control cells were cultured for an additional 24-48 h at 37° C. and then analyzed with CellTiter-Blue® Cell Viability Assay following the manufacturer's instructions.

[7] = test system: HeLa-EGFP (182TAG) reporter cells; experiment: Genetic incorporation of mFSY in HeLa-EGFP (182TAG) reporter cells; type: cell-based; conditions: no mFSY added or 1 mM mFSY added
Description: FIGS. 12A-12C: Genetic incorporation of mFSY into proteins in mammalian cells. FIG. 12A: FACS analysis of mFSY incorporation into HeLa-EGFP (182TAG) cells. Negative control cells were either not transfected with any plasmid or were not treated with mFSY. FACS data is representative of three biological replicates. FIG. 12B: Bar graph showing total EGFP fluorescence percentage from FACS data. Error bar: s.d., n=3. FIG. 12C: Fluorescence microscopy and brightfield images of HeLa-EGFP (182TAG) reporter cells under two conditions: no mFSY added or 1 mM mFSY added.

[8] = healthy volunteers in phase I trial, patients in phase II trial; cited from earlier work

NC(Cc1ccc(OS(=O)(=O)F)c(F)c1)C(=O)O (centres unmarked) [FFY]
PERx reaction rate over FSY in the mNB6 system [1]: 240% | residues forming a covalent bond with F-FSY [2]: form a covalent bond with Lys, His and Tyr

COc1ccc(CC(N)C(=O)O)cc1S(=O)(=O)F (centres unmarked) [SFY, o-sulfonyl fluoride-O-methyltyrosine]
cross-linking adducts with NMPs detected by MS [3]: Cross-linking adducts of SFY with all four NMPs were detected | residues reacting with SFY placed in proximity [4]: react with His, Tyr, and Lys | crosslinking capability of SFY [5]: allows crosslinking of His, Tyr, Lys residues in protein and of RNA in cells | toxicity to HEK293T cells [6]: did not observe obvious toxicity

NC(Cc1cccc(OS(=O)(=O)F)c1)C(=O)O [mFSY, meta-fluorosulfate-L-tyrosine]
EGFP fluorescence (mFSY incorporation) [7]: Fluorescence is only seen after the addition of mFSY

rhACE2
safety and tolerability [8]: safe and well tolerated
